The supplement of paper PMC5908809

What was measured:
[1] = system: normal NK cells expanded with K562-aAPC; test: drug sensitivity score (DSS) (DSS units); higher = more sensitive; extreme values may be limits of the assay; conditions: 72 h; IL-2 2.5 ng/mL
Description: (§1)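 Drug sensitivity and resistance testing on K562-aAPC-expanded normal NK cells: 5 concentrations (10-fold steps over a 10,000-fold range), 72 h at 37 °C, viability by CellTiter-Glo normalised to DMSO and benzethonium chloride controls; DSS from the fitted curve.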

NKL (IL-2 2.5 ng/mL) [2] = test: as above; conditions: 72 h
[3] = system: normal primary NK cells, pool 2 (3 donors) (IL-2 2.5 ng/mL); test: as above; conditions: 72 h
[4] = system: normal primary NK cells, pool 1 (3 donors) (IL-2 2.5 ng/mL); test: as above; conditions: 72 h
KHYG-1 (IL-2 2.5 ng/mL) [5] = test: as above; conditions: 72 h
NK-92 (IL-2 2.5 ng/mL) [6] = test: as above; conditions: 72 h
YT (IL-2 2.5 ng/mL) [7] = test: as above; conditions: 72 h
IMC-1 (IL-2 20 ng/mL) [8] = test: as above; conditions: 72 h
[9] = system: normal primary NK cells, pool 3 (3 donors) (IL-2 2.5 ng/mL); test: as above; conditions: 72 h
NK-YS (IL-2 2.5 ng/mL) [10] = test: as above; conditions: 72 h
KAI3 (IL-2 2.5 ng/mL) [11] = test: as above; conditions: 72 h
DERL-7 (IL-2 2.5 ng/mL) [12] = test: as above; conditions: 72 h
[13] = system: normal primary NK cells, pool 1 (3 donors), resting (IL-2 0 ng/mL); test: as above; conditions: 72 h
SNK-6 (IL-2 2.5 ng/mL) [14] = test: as above; conditions: 72 h
[15] = system: normal NK cells expanded with K562-aAPC; test: percent inhibition of viability; higher = more inhibition; conditions: 72 h, IL-2 2.5 ng/mL
Description: as §1

NKL (IL-2 2.5 ng/mL) [16] = test: as above; conditions: 72 h
[17] = system: normal primary NK cells, pool 2 (3 donors) (IL-2 2.5 ng/mL); test: as above; conditions: 72 h
[18] = system: normal primary NK cells, pool 1 (3 donors) (IL-2 2.5 ng/mL); test: as above; conditions: 72 h
KHYG-1 (IL-2 2.5 ng/mL) [19] = test: as above; conditions: 72 h
NK-92 (IL-2 2.5 ng/mL) [20] = test: as above; conditions: 72 h
YT (IL-2 2.5 ng/mL) [21] = test: as above; conditions: 72 h
IMC-1 (IL-2 20 ng/mL) [22] = test: as above; conditions: 72 h
[23] = system: normal primary NK cells, pool 3 (3 donors) (IL-2 2.5 ng/mL); test: as above; conditions: 72 h
NK-YS (IL-2 2.5 ng/mL) [24] = test: as above; conditions: 72 h
KAI3 (IL-2 2.5 ng/mL) [25] = test: as above; conditions: 72 h
DERL-7 (IL-2 2.5 ng/mL) [26] = test: as above; conditions: 72 h
[27] = system: normal primary NK cells, pool 1 (3 donors), resting (IL-2 0 ng/mL); test: as above; conditions: 72 h
SNK-6 (IL-2 2.5 ng/mL) [28] = test: as above; conditions: 72 h

Nc1ccccc1NC(=O)c1ccc(CNc2nccc(-c3cccnc3)n2)cc1 [Mocetinostat] (max concentration tested 10000 nM)
Conditions | drug sensitivity score
DERL-7 (IL-2 2.5 ng/mL) [12] | 17
IMC-1 (IL-2 20 ng/mL) [8] | 18.4
KAI3 (IL-2 2.5 ng/mL) [11] | 17.2
KHYG-1 (IL-2 2.5 ng/mL) [5] | 17.6
NK-92 (IL-2 2.5 ng/mL) [6] | 19.3
NK-YS (IL-2 2.5 ng/mL) [10] | 13.7
NKL (IL-2 2.5 ng/mL) [2] | 21.4
SNK-6 (IL-2 2.5 ng/mL) [14] | 19.4
YT (IL-2 2.5 ng/mL) [7] | 11.6
[1] | 14.8
[3] | 12.9
[4] | 11.4
[9] | 12.2
[13] | 14.3

percent inhibition of viability [%]
Conditions | 1 nM | 10 nM | 100 nM | 1000 nM | 10000 nM
DERL-7 (IL-2 2.5 ng/mL) [26] | -3.82 | -7.01 | -13.8 | 99.3 | 101
IMC-1 (IL-2 20 ng/mL) [22] | -6.53 | -6.19 | 4.71 | 98.2 | 101
KAI3 (IL-2 2.5 ng/mL) [25] | -5.2 | 1.15 | 22.6 | 77.3 | 104
KHYG-1 (IL-2 2.5 ng/mL) [19] | -6.09 | -6.23 | -4.57 | 100 | 105
NK-92 (IL-2 2.5 ng/mL) [20] | -18.8 | -10.3 | 8.7 | 99.6 | 105
NK-YS (IL-2 2.5 ng/mL) [24] | -9.56 | -10.2 | -10.2 | 71.5 | 102
NKL (IL-2 2.5 ng/mL) [16] | -8.5 | -7.5 | 22.2 | 98.2 | 106
SNK-6 (IL-2 2.5 ng/mL) [28] | -6.1 | -9.13 | 11.2 | 96.4 | 100
YT (IL-2 2.5 ng/mL) [21] | -3.42 | -2.92 | 3.45 | 48.2 | 104
[15] | -2.73 | -8.59 | -12.3 | 81.4 | 100
[17] | -2.61 | -1 | -6.41 | 66.8 | 94.1
[18] | 0.77 | 13.7 | 15.1 | 47 | 90.7
[23] | -0.12 | -0.69 | 5.62 | 57.3 | 94.5
[27] | 6.94 | 10 | 2.89 | 76.2 | 88.4

NC(=S)N/N=C/c1ncccc1N [Triapine] (max concentration tested 10000 nM)
Conditions | drug sensitivity score
DERL-7 (IL-2 2.5 ng/mL) [12] | 4.86
IMC-1 (IL-2 20 ng/mL) [8] | 4.69
KAI3 (IL-2 2.5 ng/mL) [11] | 9.5
KHYG-1 (IL-2 2.5 ng/mL) [5] | 13.8
NK-92 (IL-2 2.5 ng/mL) [6] | 12.1
NK-YS (IL-2 2.5 ng/mL) [10] | 9.25
NKL (IL-2 2.5 ng/mL) [2] | 4.61
SNK-6 (IL-2 2.5 ng/mL) [14] | 4.48
YT (IL-2 2.5 ng/mL) [7] | 3.49
[1] | 10.1
[3] | 3.34
[4] | 3.86
[9] | 4.03
[13] | 8.2

percent inhibition of viability [%]
Conditions | 1 nM | 10 nM | 100 nM | 1000 nM | 10000 nM
DERL-7 (IL-2 2.5 ng/mL) [26] | -1.06 | 2.72 | -5.08 | -8.15 | 97.7
IMC-1 (IL-2 20 ng/mL) [22] | -5.06 | 0.28 | -5.51 | -12.1 | 98
KAI3 (IL-2 2.5 ng/mL) [25] | -5.83 | 4.79 | 3.83 | 32.7 | 93.6
KHYG-1 (IL-2 2.5 ng/mL) [19] | -1.53 | -0.9 | -1.65 | 73.7 | 97.9
NK-92 (IL-2 2.5 ng/mL) [20] | -11.5 | -5.21 | -2.75 | 61.1 | 90.6
NK-YS (IL-2 2.5 ng/mL) [24] | -1.66 | -1.59 | -1.57 | 26.8 | 95.1
NKL (IL-2 2.5 ng/mL) [16] | -2.42 | -1.96 | -11.9 | -7.16 | 92.3
SNK-6 (IL-2 2.5 ng/mL) [28] | 4.11 | 13 | 14.7 | -6.98 | 89.7
YT (IL-2 2.5 ng/mL) [21] | 0.85 | 0.16 | -3.39 | -10 | 74.8
[15] | -2.67 | -8.24 | -2.71 | 55 | 64.6
[17] | -9.87 | -3.04 | -3.45 | 8.38 | 40
[18] | -6.36 | -11 | -8.82 | 4.76 | 57.7
[23] | -6.53 | -8.38 | -5.12 | 15.8 | 38.7
[27] | -6.48 | -20.7 | -16.6 | 22.7 | 85.8

NC(=O)NO [Hydroxyurea] (max concentration tested 100000 nM)
Conditions | drug sensitivity score
DERL-7 (IL-2 2.5 ng/mL) [12] | 0.03
IMC-1 (IL-2 20 ng/mL) [8] | 0
KAI3 (IL-2 2.5 ng/mL) [11] | 8.49
KHYG-1 (IL-2 2.5 ng/mL) [5] | 1.16
NK-92 (IL-2 2.5 ng/mL) [6] | 6.31
NK-YS (IL-2 2.5 ng/mL) [10] | 1.89
NKL (IL-2 2.5 ng/mL) [2] | 6.01
SNK-6 (IL-2 2.5 ng/mL) [14] | 0
YT (IL-2 2.5 ng/mL) [7] | 0.2
[1] | 4.07
[3] | 0.1
[4] | 0
[9] | 0
[13] | 4.95

percent inhibition of viability [%]
Conditions | 10 nM | 100 nM | 1000 nM | 10000 nM | 100000 nM
DERL-7 (IL-2 2.5 ng/mL) [26] | 2.03 | -0.08 | 8.03 | -3.4 | 12.6
IMC-1 (IL-2 20 ng/mL) [22] | -6.14 | -2.56 | -2.39 | -0.1 | 9.95
KAI3 (IL-2 2.5 ng/mL) [25] | 24.5 | 13.1 | 12.7 | 20.9 | 51.8
KHYG-1 (IL-2 2.5 ng/mL) [19] | -10.9 | -7.34 | -3.16 | 8.85 | 17.1
NK-92 (IL-2 2.5 ng/mL) [20] | 6.26 | 6.63 | 2.07 | 31.3 | 48.5
NK-YS (IL-2 2.5 ng/mL) [24] | -0.41 | -2.69 | -1.46 | 3.98 | 29.3
NKL (IL-2 2.5 ng/mL) [16] | 4.79 | -0.36 | 15 | 24.1 | 48.3
SNK-6 (IL-2 2.5 ng/mL) [28] | 15.2 | -7.82 | -13.1 | -12.9 | 1.36
YT (IL-2 2.5 ng/mL) [21] | -10.8 | -9.74 | -3.92 | 0.46 | 14.2
[15] | 2.1 | -5.76 | -2.1 | 8.98 | 49.1
[17] | 1.52 | 0.13 | 10.8 | 4.35 | 13.4
[18] | -2.1 | 5.26 | 3.61 | -8.28 | 4.04
[23] | 6.75 | 1.29 | 8.4 | -5.82 | 7.32
[27] | 15.8 | 15.8 | 15.4 | 15.8 | 15.6
